The source of these data is PubChem BioAssay (NCI).

Assay in all cases: NCI-60 cell line screen, 48 h
For experiment [1], the system named is LXFL 529 NSCLC.
Experiment [2] concerns DMS 114 small cell lung.
The subject of experiment [3] is K-562 leukemia.
Experiment [4] has as its system DMS 273 small cell lung.
For experiment [5], the system named is M19-MEL melanoma.
Experiment [6] deals with KM20L2 colon.
In experiment [7] the test system is UACC-62 melanoma.
For experiment [8], the system named is HOP-18 NSCLC.
The test system of experiment [9] is HS 578T breast.

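Tested at 5 concentrations; 48 h exposure; 96-well plates; endpoints linearly interpolated, else capped at highest concentration. GI50: concentration for 50% inhibition of growth. At the TGI there is no net growth.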 Bounds are passed on as bounds.

With `O=C(O)CCSC(=O)Nc1ccc([N+](=O)[O-])cc1`, the TGI in [1], in experiment [2], in [3] and in experiment [4] was more than 100 µM throughout.

For the molecule `COCCCNC(=O)C1C(=O)C(=O)N(CCCOC)C1=O` (stereo not drawn), the TGI in experiment [1], in [2], in experiment [5], in [3], in experiment [4] and in experiment [6] was more than 100 µM in each case. Besides, the TGI in [7] and in experiment [8] was more than 100 µM in each case.

With `O=C(CCN(C(=O)O)S(=O)(=O)c1ccc(NC(=O)c2ccccc2)cc1)NC1CCCCC1`, the TGI in [1], in experiment [2], in experiment [5], in experiment [3], in [4] and in experiment [6] was more than 100 µM each time. Besides, the TGI in experiment [7] and in [8] was more than 100 µM throughout.

As to `COC1(OC)CC2OC1C1N=NN(C(=O)OC(C)(C)C)C21` (stereo not drawn), the TGI in experiment [1], in experiment [2], in experiment [5], in experiment [3], in experiment [4] and in experiment [6] was more than 100 µM throughout. Also, the TGI in experiment [7] and in [8] was more than 100 µM in each case.

Consider `CCOC(=O)/C(=C\c1ccccc1)C(=O)O`, for which the TGI in experiment [2], in experiment [5], in experiment [3], in experiment [4], in experiment [6] and in [7] was more than 100 µM each time.

Take `O=C(CC1(O)C(=O)Nc2ccccc21)c1ccncc1` (stereo not drawn): the TGI in [1], in [2], in [5], in experiment [3], in [4] and in [6] was more than 100 µM each time. The TGI in [7] was more than 100 µM.

On to `Nc1cccc(S(=O)(=O)NCC(=O)O)c1`, for which the TGI in [1], in experiment [2], in experiment [5], in experiment [3], in experiment [4] and in [6] was more than 100 µM each time. Moreover, the TGI in experiment [7] and in experiment [8] was more than 100 µM in each case.

On to `C[C@@H]1OC(=O)N2CCCC(=C3SCCCS3)C12` (stereo partly drawn), for which the TGI in [1], in [2], in [5], in experiment [3], in [4] and in [6] was more than 100 µM each time. Further, the TGI in experiment [7] and in experiment [8] was more than 100 µM each time.

Turning to `CCN(CC)C(c1ccc(N(C)C)cc1)C(c1ccc(N(C)C)cc1)N(CC)CC` (stereo not drawn), the TGI was more than 73 µM in experiment [1]; 40.6 µM in experiment [2]; more than 73 µM in experiment [5]; more than 73 µM in experiment [3]; more than 73 µM in experiment [4]; more than 73 µM in experiment [6]. Moreover, the TGI in experiment [7] is more than 73 µM.

Regarding `O=[N+]([O-])c1ccc(C=NC2CCCCC2)cc1`, the TGI in experiment [2], in [5], in experiment [3], in [4], in experiment [6] and in [7] was more than 100 µM each time. This molecule also registered a TGI in experiment [8] of more than 100 µM.

In the case of `O=C(CC1(O)C(=O)Nc2c(Cl)ccc(Cl)c21)c1ccc(F)cc1` (stereo not drawn), the TGI in experiment [1] is 92.1 µM; in [2], 52.1 µM; in experiment [3] it was more than 100 µM; in experiment [4] it was more than 100 µM; in experiment [6], more than 100 µM; in experiment [8], more than 100 µM.

Regarding `O=C(CCc1cc(-c2ccccc2)nc(=S)[nH]1)N(Cc1ccccc1)Cc1ccccc1`, the TGI in experiment [1], in experiment [2], in [5], in experiment [3], in experiment [4] and in [6] was more than 100 µM in each case. For the same molecule, the TGI in experiment [7] and in [8] was more than 100 µM throughout.

As for `Cc1cc(Cl)cc2c1NC(=O)C2(O)CC(=O)c1ccco1` (stereo not drawn), the TGI is more than 100 µM in [1]; more than 100 µM in [2]; 30.9 µM in [5]; 54.6 µM in experiment [3]; more than 100 µM in experiment [4]; 67.5 µM in experiment [7]. Besides, the TGI in [8] and in [9] was more than 100 µM throughout.

With `COc1ccc2c(c1)[n+](=O)c(C(=O)C/C(=N/OCCCc1ccccc1)C(=O)NC13CC4CC(CC(C4)C1)C3)c(C)n2[O-]`, the TGI in experiment [1], in [2], in experiment [5], in experiment [3], in experiment [4] and in [6] was more than 100 µM each time. For the same molecule, the TGI in experiment [7] and in [8] was more than 100 µM in each case.

In the case of `N#C/C(=C\c1ccc2ccccc2c1)c1ccccc1`, the TGI is more than 100 µM in experiment [1]; more than 100 µM in experiment [5]; 35.8 µM in [4]; 34.9 µM in [6]; 36.7 µM in [7]; more than 100 µM in experiment [8].

As to `Cc1cc(N(CCC#N)CCC#N)ccc1/C=C1\N=C(c2cc([N+](=O)[O-])ccc2Cl)N(c2cccc(Cl)c2)C1=O`, the TGI in experiment [1], in experiment [2], in experiment [5], in experiment [3], in [4] and in experiment [6] was more than 100 µM in each case. Moreover, the TGI in [7] and in [8] was more than 100 µM throughout.

For `O=C(O)C(CS)Nc1c2ccccc2nc2ccccc12` (stereo not drawn), the TGI in experiment [1], in [2], in [5], in [3], in experiment [4] and in [6] was more than 100 µM in each case.

Consider `Nc1c(-c2ccc(Cl)cc2)[n+]([O-])c2ccccc2[n+]1[O-]`, for which the TGI in experiment [1], in experiment [2], in experiment [5], in experiment [3], in experiment [4] and in experiment [6] was more than 100 µM in each case. Moreover, the TGI in experiment [7] and in experiment [8] was more than 100 µM throughout.

In the case of `COc1ccc2nc3c(C(=O)NCCN(C)C)cccc3nc2c1`, the TGI in experiment [2] was 20.2 µM; in experiment [5], 22.2 µM; in experiment [3], 29.5 µM; in experiment [4], 23.8 µM; in [7] it was 21.2 µM; in [8] it was more than 100 µM.

Consider `CNC(=O)C1CCc2nnc(-c3ccccc3)n21` (stereo not drawn), for which the TGI in experiment [1], in experiment [2], in experiment [5], in [3], in experiment [4] and in experiment [6] was more than 100 µM throughout. Further, the TGI in [7] and in [8] was more than 100 µM each time.

As to `O=C(N/C(=C\c1cccc([N+](=O)[O-])c1)c1nc2ccc([N+](=O)[O-])cc2[nH]1)c1ccccc1`, the TGI in [1] is 75.1 µM; in experiment [5] it was more than 100 µM; in experiment [3] it was more than 100 µM; in experiment [4], more than 100 µM; in [6] it was more than 100 µM; in [7], 46.7 µM.

For `CC(C)(C)c1cc(CCC(=O)Nc2ccc(Cl)cc2)nc(NC#N)n1`, the TGI in experiment [1], in [5], in experiment [3], in [4], in experiment [6] and in [7] was more than 100 µM in each case. In experiment [8], this molecule showed a TGI of more than 100 µM.

Turning to `CCOC(=O)/C(C#N)=C/c1[nH]c(C(=O)OCc2ccccc2)c(C)c1C`, the TGI in experiment [1], in experiment [2], in experiment [5], in experiment [3], in experiment [4] and in [6] was more than 100 µM throughout. The TGI in [7] and in [8] was more than 100 µM each time.

Take `CN(C)CCNC(=O)c1cccc2ccc(-c3ccncc3)nc12`: the TGI came to 8.95 µM in experiment [2]; 4.86 µM in experiment [5]; 9.56 µM in [3]; 7.76 µM in experiment [4]; 3.73 µM in experiment [7]; 9.18 µM in [8].

In the case of `Cc1ccc(NC(=O)CC(=O)n2nc(C)c(N=Nc3ccccc3C(=O)O)c2C)cc1`, the TGI in experiment [1], in experiment [2], in [5], in experiment [3], in experiment [4] and in experiment [6] was more than 100 µM in each case. Further, in experiment [7], the TGI was more than 100 µM.

`CCCn1c(=S)sc2c1nc(C)n1c(Nc3ccccc3)nnc21`: the results for the GI50 in experiment [3], in [7] and in experiment [9] were 6.15 µM, 3.09 µM and 3.55 µM, respectively. The TGI in experiment [3] was 37.7 µM; in experiment [7] it was 18.9 µM; in experiment [9] it was 36 µM.

With `CC[C@@]1(c2ccccc2)C2=C(CC(C)(C)CC2=O)Nc2[nH]ncc21`, the GI50 in experiment [3] was more than 100 µM; in experiment [7] it was more than 100 µM; in experiment [9], 96.4 µM. For the same molecule, the TGI in experiment [3], in experiment [7] and in [9] was more than 100 µM throughout.

Regarding `CCCCCCCC(=O)OCC/C=C/C1OC1C1OC(=O)/C=C\C=C\c2nc(oc2C)/C=C(/C)CCC2OC2C1OC(=O)NC(C)=O` (stereo not drawn), the GI50 in experiment [3] was 0.0304 µM; in [7], 0.0316 µM; in [9] it was 0.0776 µM. Further, the TGI stood at 1.51 µM in experiment [3], 0.0808 µM in [7] and 0.221 µM in experiment [9].

With `CCCCCCCCn1ccc2cc(NC(=O)Cn3cc(CN4CCCC4)nn3)ccc21`, the GI50 is 1.91 µM in experiment [3], 1.7 µM in [7] and 1.91 µM in experiment [9]. For the same molecule, the TGI was 3.9 µM in [3], 3.16 µM in [7] and 4.74 µM in experiment [9].

For `C/C(CC(=O)Nc1cc(C)ccc1C)=N\NC(=O)c1ccncc1`, the TGI in experiment [1], in experiment [5], in [3], in experiment [6] and in experiment [7] was more than 100 µM each time.

With `C[N+]1=C(/C=C/c2ccc(O)c3ncccc23)C(C)(C)c2ccccc21`, the GI50 in experiment [3] is 2.32 µM; in [7], 2.47 µM; in [9] it was 2.14 µM. Moreover, the TGI in experiment [3] is more than 100 µM; in experiment [7], 8.54 µM; in experiment [9], 8.14 µM.

On to `COc1cc2cc(Oc3ccc(NC(=O)Nc4ccc(Cl)c(C(F)(F)F)c4)cc3)c(C)nc2cc1OCCN1CCOCC1`, for which the figures for the GI50 in [3], in experiment [7] and in experiment [9] were 0.669 µM, 1.36 µM and 1.83 µM, respectively. Moreover, the TGI in [3] was determined as 6.95 µM; in experiment [7], 3.46 µM; in [9] it was 5.11 µM.

Consider `COC(=O)Nc1nc2ccc(Oc3ccc(NC(=O)Nc4cc(C(F)(F)F)ccc4F)cc3)cc2s1`, for which the GI50 in [3] is 0.0202 µM; in experiment [7], 3.9 µM; in [9], 6.21 µM. For the same molecule, the TGI in experiment [3], in experiment [7] and in [9] was more than 25 µM each time.

`Cc1cc2c(cc1Cl)SC1=NN(C)S(=O)N1S2(=O)=O` (stereo not drawn): the GI50 is more than 100 µM in experiment [3], 88.4 µM in experiment [7] and more than 100 µM in experiment [9]. The TGI in experiment [3], in experiment [7] and in [9] was more than 100 µM throughout.

On to `COc1cc(Nc2nc3ccccc3nc2-c2cccs2)cc(OC)c1OC`, for which the TGI in [1], in [5], in experiment [4], in [6], in [7] and in experiment [8] was more than 100 µM in each case.

Take `N#CSC1CCCCNC1=O` (stereo not drawn): the TGI is 62.3 µM in experiment [3], 29.1 µM in experiment [7] and 50.4 µM in experiment [9].

Regarding `COc1ccc2c(c1)CCCN2c1c2ccccc2nc2ccccc12`, the GI50 is 0.341 µM in experiment [3], 0.38 µM in experiment [7] and 0.314 µM in experiment [9]. Moreover, the TGI in experiment [3] is more than 100 µM; in experiment [7] it was 3.54 µM; in experiment [9], 5.86 µM.

On to `O=C(O)c1nn(-c2ccccc2-c2n[nH]c(=O)[nH]c2=O)c(=O)[nH]c1=O`, for which the TGI in experiment [3], in experiment [7] and in experiment [9] was more than 100 µM throughout.
